Measured values as given in patent US20250177419A1, “PHARMACEUTICAL COMPOSITION COMPRISING NICLOSAMIDE OR PHARMACEUTICALLY ACCEPTABLE SALT THEREOF AND PREPARATION METHOD THEREFOR” (WEBIOTREE CO., LTD, priority 2022, published 2025).

Experiments:
[1] = tested on: Beta and Omicron variants of SARS-CoV-2; experiment: Antiviral efficacy test in Vero E6 cells, qRT-PCR viral genome copy; format: cell-based
[2] = tested on: SARS-CoV-2 Omicron (B11529); experiment: Antiviral efficacy test in Vero E6 cells, qRT-PCR viral genome copy, Omicron; format: cell-based

O=C(Nc1ccc([N+](=O)[O-])cc1Cl)c1cc(Cl)ccc1O [niclosamide]
effectiveness in inhibiting viral proliferation compared to remdesivir [1]: over 1.7 times | antiviral efficacy against the Omicron variant compared to the Beta variant [2]: more than four times higher antiviral efficacy
